Where “and” joins values, the source holds several entries; their conditions need not be identical. Equal entries are not always repeated. Where two headings read alike, the source gives them in different places.
Experiments:
[1] = tested on: E. coli AG100tet (AcrAB overexpressing); test: MIC, broth microdilution; assay type: cell-based, Escherichia coli; settings: Escherichia coli
[2] = tested on: E. coli AG100A; test: microbe, parasite or virus in culture; assay type: cell-based, Escherichia coli; settings: for MIC: Escherichia coli, AG100A
Method: The minimum inhibitory concentrations (MICs) were determined using the broth microdilution method according to the CLSI guidelines ([Clinical and Laboratory Standards Institute, 2014]). […] Two-fold serial dilutions of the compounds were made to achieve the following concentrations: 320 µM–40 µM. The MICs were determined as the lowest concentration at which no visible growth was observed after 18 h of incubation at 37 °C. The assays were performed in triplicate and the MIC value was given as result of at least two concordant values.

[3] = tested on: E. coli AG100tet; test: EtBr efflux by real-time fluorometry; settings: 80 µM
Method: Control tubes with only cells and cells with and without 0.4% glucose were included. The fluorescence was measured in a Rotor-Gene 3000 and the data was acquired every 30 s for 30 min at 37 °C. The efflux activity was quantified by comparing the fluorescence data obtained under conditions that promote efflux (presence of glucose and absence of efflux inhibitor) with the data from the control in which the bacteria are under conditions of no efflux (presence of an inhibitor and no energy source).

[4] = tested on: E. coli AG100; test: Membrane permeability assay (Live/Dead BacLight)

Structure (SMILES): CN(C)CCCN1c2ccccc2Sc2ccc(Cl)cc21 [CPZ, chlorpromazine]
- MIC [1]: 280 µg/mL and 788 µM
- reduction in TET MIC ([2]; AG100A (pump-deficient strain)): 4 fold
- MIC ([2]; read-out: MIC of EtBr in presence of the efflux inhibitor): 0.39 µg/mL
- MIC ([2]; read-out: MIC of OFX in presence of the efflux inhibitor): 0.015 µg/mL
- MIC ([2]; read-out: MIC of OXA in presence of the efflux inhibitor): 2 µg/mL
- MIC ([2]; read-out: MIC of TET in presence of the efflux inhibitor): 0.125 µg/mL
- Fluorescence raw data, Channel Cycling A.530/585hp ([3]; cycle 1, + glucose): 6.9729
- Fluorescence raw data, Channel Cycling A.530/585hp ([3]; cycle 1, without glucose): 6.962
- Fluorescence raw data, Channel Cycling A.530/585hp ([3]; cycle 2, + glucose): 6.777
- Fluorescence raw data, Channel Cycling A.530/585hp ([3]; cycle 2, without glucose): 6.801
- Fluorescence raw data, Channel Cycling A.530/585hp ([3]; cycle 3, + glucose): 6.512
- Fluorescence raw data, Channel Cycling A.530/585hp ([3]; cycle 3, without glucose): 6.754
- Fluorescence raw data, Channel Cycling A.530/585hp ([3]; cycle 4, without glucose): 6.877
- Fluorescence raw data, Channel Cycling A.530/585hp ([3]; cycle 5, without glucose): 7.026
- Fluorescence raw data, Channel Cycling A.530/585hp ([3]; cycle 6, without glucose): 7.1507
- Fluorescence raw data, Channel Cycling A.530/585hp ([3]; cycle 7, without glucose): 7.108
- Fluorescence raw data, Channel Cycling A.530/585hp ([3]; cycle 8, without glucose): 7.075
- Fluorescence raw data, Channel Cycling A.530/585hp ([3]; cycle 9, + glucose): 6.252
- Fluorescence raw data, Channel Cycling A.530/585hp ([3]; cycle 9, without glucose): 7.246
- Fluorescence raw data, Channel Cycling A.530/585hp ([3]; cycle 10, + glucose): 6.3883
- Fluorescence raw data, Channel Cycling A.530/585hp ([3]; cycle 10, without glucose): 7.315
- Fluorescence raw data, Channel Cycling A.530/585hp ([3]; cycle 11, + glucose): 6.371
- Fluorescence raw data, Channel Cycling A.530/585hp ([3]; cycle 11, without glucose): 7.397
- Fluorescence raw data, Channel Cycling A.530/585hp ([3]; cycle 12, + glucose): 6.405
- Fluorescence raw data, Channel Cycling A.530/585hp ([3]; cycle 12, without glucose): 7.4437
- Fluorescence raw data, Channel Cycling A.530/585hp ([3]; cycle 13, + glucose): 6.558
- Fluorescence raw data, Channel Cycling A.530/585hp ([3]; cycle 13, without glucose): 7.742
- Fluorescence raw data, Channel Cycling A.530/585hp ([3]; cycle 14, + glucose): 6.536
- Fluorescence raw data, Channel Cycling A.530/585hp ([3]; cycle 14, without glucose): 7.795
- Fluorescence raw data, Channel Cycling A.530/585hp ([3]; cycle 15, + glucose): 6.4669
- Fluorescence raw data, Channel Cycling A.530/585hp ([3]; cycle 15, without glucose): 7.899
- Fluorescence raw data, Channel Cycling A.530/585hp ([3]; cycle 16, + glucose): 6.613
- Fluorescence raw data, Channel Cycling A.530/585hp ([3]; cycle 16, without glucose): 7.989
- Fluorescence raw data, Channel Cycling A.530/585hp ([3]; cycle 17, + glucose): 6.675
- Fluorescence raw data, Channel Cycling A.530/585hp ([3]; cycle 17, without glucose): 8.041
- Fluorescence raw data, Channel Cycling A.530/585hp ([3]; cycle 18, + glucose): 6.686
- Fluorescence raw data, Channel Cycling A.530/585hp ([3]; cycle 18, without glucose): 8.027
- Fluorescence raw data, Channel Cycling A.530/585hp ([3]; cycle 19, + glucose): 6.605
- Fluorescence raw data, Channel Cycling A.530/585hp ([3]; cycle 19, without glucose): 8.219
- Fluorescence raw data, Channel Cycling A.530/585hp ([3]; cycle 20, + glucose): 6.711
- Fluorescence raw data, Channel Cycling A.530/585hp ([3]; cycle 20, without glucose): 8.174
- Fluorescence raw data, Channel Cycling A.530/585hp ([3]; cycle 21, + glucose): 6.762
- Fluorescence raw data, Channel Cycling A.530/585hp ([3]; cycle 21, without glucose): 8.255
- Fluorescence raw data, Channel Cycling A.530/585hp ([3]; cycle 22, + glucose): 6.7278
- Fluorescence raw data, Channel Cycling A.530/585hp ([3]; cycle 22, without glucose): 8.507
- Fluorescence raw data, Channel Cycling A.530/585hp ([3]; cycle 23, + glucose): 6.745
- Fluorescence raw data, Channel Cycling A.530/585hp ([3]; cycle 23, without glucose): 8.467
- Fluorescence raw data, Channel Cycling A.530/585hp ([3]; cycle 24, + glucose): 6.771
- Fluorescence raw data, Channel Cycling A.530/585hp ([3]; cycle 24, without glucose): 8.6
- Fluorescence raw data, Channel Cycling A.530/585hp ([3]; cycle 25, + glucose): 6.796
- Fluorescence raw data, Channel Cycling A.530/585hp ([3]; cycle 25, without glucose): 8.667
- Fluorescence raw data, Channel Cycling A.530/585hp ([3]; cycle 26, + glucose): 6.92
- Fluorescence raw data, Channel Cycling A.530/585hp ([3]; cycle 26, without glucose): 8.734
- Fluorescence raw data, Channel Cycling A.530/585hp ([3]; cycle 27, + glucose): 6.8217
- Fluorescence raw data, Channel Cycling A.530/585hp ([3]; cycle 27, without glucose): 8.768
- Fluorescence raw data, Channel Cycling A.530/585hp ([3]; cycle 28, + glucose): 6.925
- Fluorescence raw data, Channel Cycling A.530/585hp ([3]; cycle 28, without glucose): 8.988
- Fluorescence raw data, Channel Cycling A.530/585hp ([3]; cycle 29, + glucose): 6.828
- Fluorescence raw data, Channel Cycling A.530/585hp ([3]; cycle 29, without glucose): 9.111
- Fluorescence raw data, Channel Cycling A.530/585hp ([3]; cycle 30, + glucose): 6.9
- Fluorescence raw data, Channel Cycling A.530/585hp ([3]; cycle 30, without glucose): 8.957
- Fluorescence raw data, Channel Cycling A.530/585hp ([3]; cycle 31, + glucose): 6.782
- Fluorescence raw data, Channel Cycling A.530/585hp ([3]; cycle 31, without glucose): 9.091
- Fluorescence raw data, Channel Cycling A.530/585hp ([3]; cycle 32, + glucose): 6.729
- Fluorescence raw data, Channel Cycling A.530/585hp ([3]; cycle 32, without glucose): 9.229
- Fluorescence raw data, Channel Cycling A.530/585hp ([3]; cycle 33, + glucose): 6.907
- Fluorescence raw data, Channel Cycling A.530/585hp ([3]; cycle 33, without glucose): 9.3007
- Fluorescence raw data, Channel Cycling A.530/585hp ([3]; cycle 34, + glucose): 6.901
- Fluorescence raw data, Channel Cycling A.530/585hp ([3]; cycle 34, without glucose): 9.345
- Fluorescence raw data, Channel Cycling A.530/585hp ([3]; cycle 35, + glucose): 6.783
- Fluorescence raw data, Channel Cycling A.530/585hp ([3]; cycle 35, without glucose): 9.405
- Fluorescence raw data, Channel Cycling A.530/585hp ([3]; cycle 36, + glucose): 6.785
- Fluorescence raw data, Channel Cycling A.530/585hp ([3]; cycle 36, without glucose): 9.367
- Fluorescence raw data, Channel Cycling A.530/585hp ([3]; cycle 37, + glucose): 6.975
- Fluorescence raw data, Channel Cycling A.530/585hp ([3]; cycle 37, without glucose): 9.488
- Fluorescence raw data, Channel Cycling A.530/585hp ([3]; cycle 38, + glucose): 6.976
- Fluorescence raw data, Channel Cycling A.530/585hp ([3]; cycle 38, without glucose): 9.581
- Fluorescence raw data, Channel Cycling A.530/585hp ([3]; cycle 39, + glucose): 6.681
- Fluorescence raw data, Channel Cycling A.530/585hp ([3]; cycle 39, without glucose): 9.571
- Fluorescence raw data, Channel Cycling A.530/585hp ([3]; cycle 40, + glucose): 6.952
- Fluorescence raw data, Channel Cycling A.530/585hp ([3]; cycle 40, without glucose): 9.707
- Fluorescence raw data, Channel Cycling A.530/585hp ([3]; cycle 41, + glucose): 6.766
- Fluorescence raw data, Channel Cycling A.530/585hp ([3]; cycle 41, without glucose): 9.731
- Fluorescence raw data, Channel Cycling A.530/585hp ([3]; cycle 42, + glucose): 6.916
- Fluorescence raw data, Channel Cycling A.530/585hp ([3]; cycle 42, without glucose): 9.718
- Fluorescence raw data, Channel Cycling A.530/585hp ([3]; cycle 43, + glucose): 6.844
- Fluorescence raw data, Channel Cycling A.530/585hp ([3]; cycle 43, without glucose): 9.8689
- Fluorescence raw data, Channel Cycling A.530/585hp ([3]; cycle 44, + glucose): 6.82
- Fluorescence raw data, Channel Cycling A.530/585hp ([3]; cycle 44, without glucose): 9.768
- Fluorescence raw data, Channel Cycling A.530/585hp ([3]; cycle 45, without glucose): 9.807
- Fluorescence raw data, Channel Cycling A.530/585hp ([3]; cycle 46, without glucose): 9.797
- Fluorescence raw data, Channel Cycling A.530/585hp ([3]; cycle 47, without glucose): 9.663
- Fluorescence raw data, Channel Cycling A.530/585hp ([3]; cycle 48, without glucose): 9.794
- Fluorescence raw data, Channel Cycling A.530/585hp ([3]; cycle 49, without glucose): 9.745
- Fluorescence raw data, Channel Cycling A.530/585hp ([3]; cycle 50, without glucose): 9.769
- Fluorescence raw data, Channel Cycling A.530/585hp ([3]; cycle 51, without glucose): 9.982
- Fluorescence raw data, Channel Cycling A.530/585hp ([3]; cycle 52, without glucose): 9.725
- Fluorescence raw data, Channel Cycling A.530/585hp ([3]; cycle 53, without glucose): 9.758
- Fluorescence raw data, Channel Cycling A.530/585hp ([3]; cycle 54, without glucose): 9.768
- Fluorescence raw data, Channel Cycling A.530/585hp ([3]; cycle 55, without glucose): 9.755
- Fluorescence raw data, Channel Cycling A.530/585hp ([3]; cycle 56, without glucose): 9.766
- Fluorescence raw data, Channel Cycling A.530/585hp ([3]; cycle 57, without glucose): 9.676
- Fluorescence raw data, Channel Cycling A.530/585hp ([3]; cycle 58, without glucose): 9.567
- Fluorescence raw data, Channel Cycling A.530/585hp ([3]; cycle 59, without glucose): 9.679
- Fluorescence raw data, Channel Cycling A.530/585hp ([3]; cycle 60, without glucose): 9.626
- Fluorescence raw data, Channel Cycling A.530/585hp ([3]; cycle 61, without glucose): 9.5963
- BacLight Live/Dead fluorescence 485/20,528/20 ([4]; 80 uM, raw well reading): 104 and 88
- BacLight Live/Dead fluorescence 485/20,590/35 ([4]; 80 uM, raw well reading): 30 and 24
- membrane permeability increase / membrane permeation ([4]; AG100, 80 µM): 18%
